Patent US8167866B2, “Drug delivery system for accelerated subcutaneous absorption” (priority 2004, dated 2012)

Key:
[1] = typical duration; routine lidocaine versus tumescent infiltration; cited from earlier work
cutaneous blood vessels = test: topical application of aqueous solution, erythema of the affected area; type: in vivo, human; settings: patient, within minutes
Description: The fluid or the solution of pharmacologic drug may include a crystalloid solution or a dilute solution of pharmacologic drug such as an antibiotic. The drug used to accelerate the absorption rate of the fluid or the pharmacologic drug is operative to cause capillary vasodilatation, that is, vasodilatation of cutaneous blood vessels. The dilation of capillaries increases the rate of blood flowing through the affected subcutaneous tissue; and consequently, increases the rate of absorption into the systemic circulation of the fluid or pharmacologic drug. As the rate of absorption and circulation of the fluid or pharmacologic drug increases, a clinically significant degree of systemic absorption of the fluid or pharmacologic drug can be achieved without the application of IV access. Currently, many drugs are available to provide the vasodilatation of cutaneous blood vessels of a human body. However, it is appreciated that those drugs which are pharmacologic and potentially toxic to the human bodies are not the appropriate candidates for such drug. For example, although lidocaine is effective to cause dilation of capillaries and increase the rate of blood flowing through affected subcutaneous tissue, which in turn accelerates the absorption rate of drug, it might not be an appropriate candidate for such a drug due to its potentially toxic effect if its concentration is too high. […]

Compound | duration of local anesthesia [1] [h] | erythema of the affected area (cutaneous blood vessels)
CCN(CC)CC(=O)Nc1c(C)cccc1C [lidocaine] | ~2 | 
CNC(=O)c1cccnc1 [methyl-nicotinamide] |  | very obvious erythema
COC(=O)c1cccnc1 [methyl-nicotinate] |  | very obvious erythema
